Patent publication US6359138B1, “4-hydroxy-piperidine derivatives” (Hoffmann-La Roche Inc., priority 1996, dated 2002)
Structures can show the parent of a compound that is named as a salt. Marks after values point to notes of the source that are not given here.

Assays:
[1] = biological target: T1, NR1C + NR2A NMDA receptor (Rattus norvegicus, UniProt P35439+Q00959); experiment: Electrophysiology on recombinant NMDA receptors, NR1C + NR2A in Xenopus oocytes; type: cell-based; conditions: 10 μM compound; Xenopus laevis oocytes, voltage clamp −80 mV, 2.7 μM Glu plus 0.9 μM Gly; mean of 4-6 oocytes
T1 construct: expressed in transfected cells; host or cells: Xenopus laevis oocytes (nuclear injection of pBC/CMV plasmids)
T1 sequence (Q00959 23-1464, other chains not shown): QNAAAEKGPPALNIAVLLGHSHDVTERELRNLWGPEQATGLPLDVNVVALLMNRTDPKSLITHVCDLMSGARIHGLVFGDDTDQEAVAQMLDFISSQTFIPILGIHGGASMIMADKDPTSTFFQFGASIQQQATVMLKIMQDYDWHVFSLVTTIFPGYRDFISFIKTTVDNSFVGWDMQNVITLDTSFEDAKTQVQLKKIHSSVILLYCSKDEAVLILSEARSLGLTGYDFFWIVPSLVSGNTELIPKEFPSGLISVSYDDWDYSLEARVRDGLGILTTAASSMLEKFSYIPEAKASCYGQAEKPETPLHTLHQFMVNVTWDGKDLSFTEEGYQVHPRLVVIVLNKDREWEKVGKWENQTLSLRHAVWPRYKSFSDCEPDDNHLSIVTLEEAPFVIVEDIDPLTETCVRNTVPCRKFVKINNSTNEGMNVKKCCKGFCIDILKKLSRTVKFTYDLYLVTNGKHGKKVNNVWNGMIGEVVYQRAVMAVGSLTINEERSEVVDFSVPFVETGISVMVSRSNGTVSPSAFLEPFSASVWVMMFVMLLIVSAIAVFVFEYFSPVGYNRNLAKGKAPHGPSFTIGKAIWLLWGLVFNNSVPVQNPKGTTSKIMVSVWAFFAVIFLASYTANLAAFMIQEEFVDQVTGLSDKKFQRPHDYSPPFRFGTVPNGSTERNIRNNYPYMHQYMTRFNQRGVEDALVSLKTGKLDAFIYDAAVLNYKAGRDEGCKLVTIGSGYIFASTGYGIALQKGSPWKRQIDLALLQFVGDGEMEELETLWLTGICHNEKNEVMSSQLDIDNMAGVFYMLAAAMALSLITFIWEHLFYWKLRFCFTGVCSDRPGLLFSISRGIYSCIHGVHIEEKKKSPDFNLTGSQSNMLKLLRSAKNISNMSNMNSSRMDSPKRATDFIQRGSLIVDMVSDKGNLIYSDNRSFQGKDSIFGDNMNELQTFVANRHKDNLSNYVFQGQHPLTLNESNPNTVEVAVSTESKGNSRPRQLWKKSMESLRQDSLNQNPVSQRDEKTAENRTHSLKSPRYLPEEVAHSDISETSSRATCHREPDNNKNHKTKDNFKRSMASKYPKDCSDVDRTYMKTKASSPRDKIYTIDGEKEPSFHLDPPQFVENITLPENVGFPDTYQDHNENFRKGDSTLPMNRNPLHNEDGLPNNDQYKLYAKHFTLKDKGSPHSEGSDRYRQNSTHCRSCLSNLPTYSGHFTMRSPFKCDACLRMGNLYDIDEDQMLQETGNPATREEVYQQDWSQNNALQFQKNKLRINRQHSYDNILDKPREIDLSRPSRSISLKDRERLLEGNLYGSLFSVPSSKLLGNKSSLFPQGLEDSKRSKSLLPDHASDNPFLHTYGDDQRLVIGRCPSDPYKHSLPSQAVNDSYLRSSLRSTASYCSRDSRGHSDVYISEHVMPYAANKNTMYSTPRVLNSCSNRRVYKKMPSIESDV
Description: (§1) Electrophysiology on Recombinant NMDA Receptors
(§2) cDNA clones coding for the subunits NR1C and NR2A of the NMDA receptor (see Hollmann and Heinemann, 1994, Annu. Rev. Neurosci. 17:31 for nomenclature of NMDA receptor subunits) were isolated from a rat brain λgt11 cDNA library as published elsewhere (Sigel et al., 1994, J. Biol. Chem. 269:8204). The clone for the subunit NR2B of the rat brain NMDA receptor was obtained from S. Nakanishi (Kyoto, Japan). The cDNAs encoding rat NR1C, NR2A and NR2B were subcloned into the expression vector pBC/CMV (Bertocci et al., 1991, Proc. Natl. Acad. Sci. U.S.A. 88:1416), placing transcription of the cDNA under control of the human cytomegalovirus promoter. CsCl-purified expression plasmids were mixed in a 1:3 ratio of NR1C:NR2A or NR1C:NR2B in injection buffer (88 mM NaCl, 1 mM KCl, 15 mM HEPES, at pH 7.0). Oocytes of South African frogs (Xenopus laevis) were used for expressing either a combination of the NR1C and NR2A subunits or the NR1C and NR2B subunits. 12 to 120 pg of a 1:3 (NR1C:NR2B) mixture of the respective cDNA species were injected into the nucleus of every oocyte. On the following two days the ion current through the NMDA receptor channels was measured in voltage clamp experiments for the methods of cDNA expression in oocytes and voltage-clamping (see, e.g., Bertrand et al., 1991, Methods in Neurosciences 4:174). The membrane potential was clamped to −80 mV and the receptors were activated by applying a modified Ringer,s solution containing the NMDA-receptor agonists L-glutamate (Glu) and glycine (Gly). Different agonist concentrations were chosen for either subunit combination to account for the different agonist sensitivities of the two types of receptors (2.7 μM Glu plus 0.9 μM Gly for NR1C+NR2A and 1.3 μM Glu plus 0.07 μM Gly for NR1C+NR2B). The agonists were applied for 15 s intervals once every 2.5 min by rapid superfusion of the oocyte with agonist containing solution and the amplitude of the agonist-evoked current was measured immediately before the end of each application. After a series of initial control applications the antagonist to be tested was added to both, the basal Ringer,s and the agonist containing solution. The antagonist concentration applied to oocytes expressing the NR2A subunit was 10 μmol/l, whereas 0.1 μtmol/ were applied to the NR2B expressing oocytes. Four to six oocytes were tested for every compound and NMDA receptor subtype. Oocytes were exposed to the compounds for 5 to 30 min depending on the time needed for reaching an equilibrium block of the NMDA receptor current. For every oocyte the decrease of the current amplitude was expressed as a percentage of the control current measured before application of the compound. Figures in the table are arithmetic mean values of these percentage values.

[2] = biological target: T2, NR1C + NR2B NMDA receptor (Rattus norvegicus, UniProt P35439+Q00960); experiment: Electrophysiology on recombinant NMDA receptors, NR1C + NR2B in Xenopus oocytes; type: cell-based; conditions: 0.1 μM compound; Xenopus laevis oocytes, voltage clamp −80 mV, 1.3 μM Glu plus 0.07 μM Gly; mean of 4-6 oocytes
T2 construct: expressed in transfected cells; host or cells: Xenopus laevis oocytes (nuclear injection of pBC/CMV plasmids)
T2 sequence (Q00960 27-1482, other chains not shown): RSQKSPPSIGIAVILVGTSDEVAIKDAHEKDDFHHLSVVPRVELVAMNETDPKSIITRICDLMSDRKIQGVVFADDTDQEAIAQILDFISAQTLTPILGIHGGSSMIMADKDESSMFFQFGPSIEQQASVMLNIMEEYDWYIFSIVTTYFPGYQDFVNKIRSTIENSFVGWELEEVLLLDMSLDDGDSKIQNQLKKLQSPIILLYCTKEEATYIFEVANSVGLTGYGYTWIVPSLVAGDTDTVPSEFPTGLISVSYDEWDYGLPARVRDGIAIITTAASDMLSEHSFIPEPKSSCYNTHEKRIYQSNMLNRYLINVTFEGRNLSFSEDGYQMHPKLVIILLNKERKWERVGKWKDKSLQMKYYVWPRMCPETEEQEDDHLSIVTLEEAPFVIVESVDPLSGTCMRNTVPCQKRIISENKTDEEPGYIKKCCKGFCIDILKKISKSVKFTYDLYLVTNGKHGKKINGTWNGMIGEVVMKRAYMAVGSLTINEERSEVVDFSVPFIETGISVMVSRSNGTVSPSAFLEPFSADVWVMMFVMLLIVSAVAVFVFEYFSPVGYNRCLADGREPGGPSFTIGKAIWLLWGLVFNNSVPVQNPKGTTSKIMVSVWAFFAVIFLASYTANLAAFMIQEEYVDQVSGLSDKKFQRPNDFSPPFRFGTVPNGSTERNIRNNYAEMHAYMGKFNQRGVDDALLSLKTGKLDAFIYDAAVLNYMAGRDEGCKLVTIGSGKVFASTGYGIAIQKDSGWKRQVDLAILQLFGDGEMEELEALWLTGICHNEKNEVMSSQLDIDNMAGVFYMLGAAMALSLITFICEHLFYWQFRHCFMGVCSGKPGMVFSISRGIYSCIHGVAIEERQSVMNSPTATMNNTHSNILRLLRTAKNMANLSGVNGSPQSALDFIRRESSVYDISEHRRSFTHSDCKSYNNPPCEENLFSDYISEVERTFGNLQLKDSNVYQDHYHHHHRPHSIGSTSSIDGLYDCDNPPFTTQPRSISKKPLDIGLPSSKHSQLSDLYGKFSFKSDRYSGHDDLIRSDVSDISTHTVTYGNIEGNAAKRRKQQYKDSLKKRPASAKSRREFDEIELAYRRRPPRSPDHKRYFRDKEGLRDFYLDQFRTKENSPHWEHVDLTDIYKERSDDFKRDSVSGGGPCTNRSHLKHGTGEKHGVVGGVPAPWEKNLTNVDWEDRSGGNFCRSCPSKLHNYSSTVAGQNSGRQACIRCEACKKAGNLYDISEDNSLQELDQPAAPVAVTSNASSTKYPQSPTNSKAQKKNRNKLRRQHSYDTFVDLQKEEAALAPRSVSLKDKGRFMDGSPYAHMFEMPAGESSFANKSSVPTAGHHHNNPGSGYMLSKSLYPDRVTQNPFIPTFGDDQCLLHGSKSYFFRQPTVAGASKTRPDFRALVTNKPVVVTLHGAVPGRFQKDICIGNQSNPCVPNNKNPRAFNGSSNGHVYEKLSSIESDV
Description: as §1
as §2, with “Figures in the table are arithmetic mean values of these percentage values.” left out

[3] = biological target: T3, NMDA receptor (3H-Ro 25-6981 binding, rat brain membranes) (Rattus norvegicus, UniProt P35439+Q00960); experiment: 3H-Ro 25-6981 binding; conditions: 5 nM 3H-Ro 25-6981, 2 hours at 4° C.
T3 construct: Membranes were prepared by homogenization of the whole brain minus cerebellum and medulla oblongata; from tissue; host or cells: rat whole brain minus cerebellum and medulla oblongata, membranes
T3 sequence (Q00960 27-1482, other chains not shown): as above
Procedure: 3H-Ro 25-6981 Binding (Ro 25-6981 is [R-(R*,S*)]-a-(4-Hydroxy-phenyl)-b-methyl-4-(phenyl-methyl)-1-piperidine Propanol)
Male Füillinsdorf albino rats weighing between 150-200 g were used. Membranes were prepared by homogenization of the whole brain minus cerebellum and medulla oblongata with a Polytron (10.000 rpm, 30 seconds), in 25 volumes of a cold Tris-HCl 50 mM, EDTA 10 mM, pH 7.1 buffer. The homogenate was centrifuged at 48.000 g for 10 minutes at 4° C. The pellet was resuspended using the Polytron in the same volume of buffer and the homogenate was incubated at 37° C. for 10 minutes. After centrifugation the pellet was homogenized in the same buffer and frozen at −80° C. for at least 16 hours but not more than 10 days. For the binding assay the homogenate was thawed at 37° C., centrifuged and the pellet was washed three times as above in a Tris-HCl 5 mM, pH 7.4 cold buffer. The final pellet was resuspended in the same buffer and used at a final concentration of 200 μg of protein/ml. 3H-Ro 25-6981 binding experiments were performed using a Tris-HCl 50 mM, pH 7.4 buffer. For displacement experiments 5 nM of 3H-Ro 25-6981 were used and non specific binding was measured using 10 μM of tetrahydroisoquinoline and usually it accounts for 10% of the total. The incubation time was 2 hours at 4° C. and the assay was stopped by filtration on Whatmann GF/B glass fiber filters (Unifilter-96, Packard, Zütrich, Switzerland). The filters were washed 5 times with cold buffer. The radioactivity on the filter was counted on a Packard Top-count microplate scintillation counter after addition of […] of microscint 40 (Canberra Packard S. A., Zürich, Switzerland).
The effects of compounds were measured using a minimum of 8 concentrations and repeated at least once. The pooled normalized values were analyzed using a non-linear regression calculation program which provide IC50 with their relative upper and lower 95% confidence limits (RS1, BBN, USA).

[4] = biological target: 3H-Prazosine binding (rat brain membranes); experiment: 3H-Prazosine binding; conditions: 0.2 nM 3H-Prazosine, 30 minutes at room temperature
Procedure: Male Füllinsdorf albino rats weighing between 150-200 g were used. Membranes were prepared by homogenization of the whole brain minus cerebellum and medulla oblongata with a Plytron (10.000 rpm, 30 seconds), in 25 volumes of a cold Tris-HCl 50 mM, EDTA 10 mM, pH 7.1 buffer. The homogenate was centrifuged at 48.000 g for 10 minutes at 4° C. The pellet was resuspended using the Polytron in the same volume of buffer and the homogenate was incubated at 37° C. for 10 minutes. After centrifugation the pellet was homogenized in the same buffer and frozen at −80° C. for at least 16 hours but not more than 10 days. For the binding assay the homogenate was thawed at 37° C., centrifuged and the pellet was washed three times as above in a Tris-HCl 5 mM, pH 7.4 cold buffer. The final pellet was resuspended in the same buffer and used at a final concentration of 200 μg of protein/ml.
3H-Prazosine binding experiments were performed using a Tris-HCl 50 mM, pH 7.4 buffer. For displacement experiments 0.2 nM of 3H-Prazosine were used and non specific binding was measured using 100 μM of Chlorpromazine. […] The radioactivity on the filter was counted on a Packard Top-count microplate scintillation counter after addition of […] of microscint 40 (Canberra Packard S. A., Zürich, Switzerland). The effects of compounds were measured using a minimum of 8 concentrations and repeated at least once. […]

Structure (SMILES) | melting point [°C] | Electrophysiology NR1C + NR2A % block by 10 μM [1] | other results
CC(=O)Nc1ccc2c(c1)CCC(CN1CCC(O)(Cc3ccccc3)CC1)C2=O.Cl (racemic) | 123 to 126 | – | –
CCc1ccc(CC2(O)CCN(CC3Cc4cc(O)ccc4O3)CC2)cc1.Cl (racemic) [Example 7, (RS)-4-(4-ethyl-benzyl)-1-(5-hydroxy-2,3-dihydro-benzofuran-2-ylmethyl)-piperidin-4-ol hydrochloride] | – | 12% | Electrophysiology NR1C + NR2B % block by 0.1 μM [2]: 89%
CS(=O)(=O)Nc1ccc2c(c1)CC(CN1CCC(O)(Cc3ccc(Cl)cc3)CC1)O2 (racemic) [Example 22, Hydrochloride] | – | – | IC50 [3]: 40 nM
Cc1ccc(CC2(O)CCN(C[C@H]3CCc4cc(O)ccc4[C@@H]3O)CC2)cc1 (racemic) [Example 27, (1RS, 2RS)-1-(1,6-Dihydroxy-1,2,3,4-tetrahydro-naphthalen-2-ylmethyl)-4-(4-methyl-benzyl)-piperidin-4-ol fumarate salt] | – | – | IC50 [4]: 6000 nM; IC50 [3]: 26 nM
Oc1ccc2c(c1)CC[C@H](CN1CCC(O)(Cc3ccccc3)CC1)[C@H]2O (racemic) [Example 29, (1RS,2RS)-2-(4-benzyl-4-hydroxy-piperidin-1-yl-methyl)-6-hydroxy-1,2,3,4-tetrahydro-naphthalen-1-ol] | 94 to 98 | – | –
Cc1ccc(CC2(O)CCN(CC3=Cc4ccc(O)cc4CC3)CC2)cc1 [Example 1, 1-(6-Hydroxy-3,4-dihydro-naphthalene-2-ylmethyl)-4-(4-methyl-benzyl)-piperidine-4-ol] | – | 65* % | Electrophysiology NR1C + NR2B % block by 0.1 μM [2]: 72%; IC50 [3]: 40 nM
Cc1ccc(CC2(O)CCN(C[C@@H]3Cc4cc(O)ccc4O3)CC2)cc1.Cl [Example 13, (S)-1-(5-Hydroxy-2,3-dihydro-benzofuran-2-ylmethyl)-4-(4-methyl-benzyl)-piperidin-4-ol hydrochloride] | – | 8% | Electrophysiology NR1C + NR2B % block by 0.1 μM [2]: 93%
Cl.Oc1ccc2c(c1)C[C@@H](CN1CCC(O)(Cc3ccc(Cl)cc3)CC1)O2 [Example 14, (S)-1-(5-Hydroxy-2,3-dihydro-benzofuran-2-ylmethyl)-4-(4-chloro-benzyl)-piperidin-4-ol hydrochloride] | – | 9% | Electrophysiology NR1C + NR2B % block by 0.1 μM [2]: 90%
Cc1ccc(CC2(O)CCN(CC3Cc4cc(O)ccc4C3O)CC2)cc1 (stereo not drawn) [Example 16, (1RS,2RS) and (1RS, 2SR)-2-[4-Hydroxy-4-(4-methyl-benzyl)-piperidine-1-ylmethyl]-indan-1,5-diol Fumarate Salt] | – | 6% | –

The next lines start with results.

melting point [°C] | Structure (SMILES) | Electrophysiology NR1C + NR2A % block by 10 μM [1] | other results
214 | Cc1ccc(CC2(O)CCN(Cc3cc4ccc(O)cc4o3)CC2)cc1.Cl | – | –
88 to 90 | Cc1ccc(CC2(O)CCN(CC3Cc4ccc(O)cc4C3)CC2)cc1.Cl (racemic) | – | –
203 to 205 | Cc1ccc(CC2(O)CCN(CC3Cc4ccc(O)cc4O3)CC2)cc1.Cl (racemic) | – | –
90 to 94 | Cc1ccc(CC2(O)CCN(CC3Cc4cc(O)ccc4N3)CC2)cc1 (racemic) [Example 21, (RS)-2-[4-Hydroxy-4-(4-methyl-benzyl)-piperidin-1-ylmethyl]-2,3-dihydro-1H-indol-5-ol] | – | –
154 to 157 | Cc1ccc(CC2(O)CCN(CC3=Cc4ccc(O)cc4C3)CC2)cc1 [Example 20, 1-(6-Hydroxy-1H-inden-2-ylmethyl)-4-(4-methyl-benzyl)-piperidin-4-ol] | – | –
